The source of these data is patent US11932870B2, “Compositions and methods for immune cell modulation in adoptive immunotherapies” (Fate Therapeutics, Inc., priority 2016, dated 2024).

Structures are written as SMILES. “Also recorded” adds a separate entry of the source.

The subject of assay [1] is CAR-T cells co-cultured with irradiated K562 tumor cells that express CD19. In words: In vitro serial killing/re-stimulation assay. The assay is classed as cell-based, human. The conditions noted are these: relative to vehicle. From the text: An informative clinical parameter that can in some contexts be indicative of likelihood of successful adoptive cell therapy in clinical trials is the ability and extent of expansion of the transferred cells in the patient post-treatment and/or persistence and continued function following initial expansion, e.g., in the context of continued exposure to antigen. The ability of engineered T cells to persist and continue expanding over multiple rounds of antigen stimulation can be indicative of such features and/or likelihood of in vivo function or clinical response. An in vitro serial killing/re-stimulation assay, where the T cells treated by each compound were evaluated for various functions, including expansion and ability to kill tumor cells expressing the target antigen in vitro over multiple rounds of exposure to and withdrawal from antigen, was used as a model system. Such assays were carried out on cells treated with or without compounds, to assess the impact of individual compounds on cell function after repeated encounter with antigen, and cell expansion or persistence in such contexts.
CD8 T cells were activated, transduced, and expanded in the presence of DMSO, TWS119, or DCC-2036. At the end of the expansion, the CAR-T cells were cryopreserved. The serial re-stimulation assay was performed by thawing the CAR-T cells and co-culturing with irradiated K562 tumor cells that express CD19, the antigen recognized by the CAR. Prior to starting each round of killing, cell numbers were adjusted so that CAR-T cell numbers were substantially the same from the cultures generated with DMSO, TWS119, and DCC-2036 treatment respectively. An equal number of irradiated CD19-expressing K562 target cells were added to the different CAR-T cultures.

The next assay concerns Nalm-6-luc tumor cells. In words: In vivo tumor clearance by compound-treated CD19 CAR-T cells. The following applies: NSG mice with Nalm-6-luc; 2.0×10^5 cryopreserved compound-treated CAR-T cells per animal (1:1 CD4:CD8); imaging; FIGS. 7 and 8. How it is done: NSG mice were injected with Nalm-6-luc, a CD19+ human tumor line engineered to express firefly luciferase. CAR-T cells were generated from CD4+ and CD8+ T cells that were separately activated and expanded in vitro. The cells were transduced with the CAR-2 construct (FIG. 2) one day after activation and then replated into 24-well GREX plates with or without the compounds. Half the media was replaced every two days thereafter until harvest one week post-activation. Cells were cryopreserved and then thawed for use. NSG mice were infused with tumor cells followed […] by CAR-T transfer via retroorbital injection. Four days after IV. injection with Nalm-6-luc cells, mice were treated with 2.0×10^5 CAR-T cells per animal (1:1 CD4:CD8). The mice were imaged periodically to determine tumor burden.

The test system of a further assay is viable CD8+ population. In words: T cell compound screen: CCR7+CD62L+ cells in the viable CD8+ population (flow cytometry). The assay is classed as cell-based, human. The conditions noted are these: 10 μM, about 6 days, anti-CD3/anti-CD28 beads; hit = Z-score > +2 for percent or absolute number CCR7+CD62L+ in CD8+. From the text: In Vitro T Cell Culture. Fresh leukopaks (AllCells, Alameda, CA) were obtained from healthy donors, from which T cells were negatively selected using the EasySep Human T cell Enrichment Kit (Stem Cell Technologies, Vancouver, Canada). The freshly isolated T cells were aliquoted and cryopreserved. On the day the screens were initiated, T cells were thawed and washed into X-Vivo 15 with 5% human AB serum, IL-2, pen/strep, and additional supplements. Cells were dispensed into flat-bottom 384-well plates at 5×10^5 cells/ml with anti-CD3/anti-CD28 beads. Individual compounds were added at a final concentration of 10 μM to each well from column 3 to column 22 of each plate. Positive and negative controls were added to additional wells. Cells were incubated for about 6 days at 37 degrees with 5% CO2.
Flow Cytometry. On Day 6 of culture, cells were stained with a fixable viability marker and fluorophore-conjugated antibodies: CD3, CD4, CD8, CD45RA, CD45RO, CD62L, CCR7, CD27, and CD122 (BD Biosciences, San Jose, CA; and BioLegend, San Diego, CA). Fluorescent absolute counting beads (Spherotech, Lake Forest, IL) were added just prior to acquisition. Data acquisition was performed on a BD Fortessa X-20 (BD Biosciences) and data were analyzed using Treestar software (FlowJo, Ashland, OR) and Spotfire (Tibco, Boston, MA).
These cells are characterized by expression of CCR7 and CD62L. Therefore, cells co-expressing both of these identifying markers were evaluated. Within the viable CD4+ population and viable CD8+ population, the percent of cells co-expressing CCR7 and CD62L was determined. The expression of either CD62L or CCR7 on T cells, as indicative of the desired T cell subsets, have been described as having favorable functional characteristics for CAR-T cell therapy, and potentially other adoptive T cell therapies.
The number of events in each of these gates relative to the number of absolute counting beads in each sample was calculated, defining a measure of the absolute number of naïve, stem cell memory, or central memory T cells within the CD4+ and/or CD8+ populations. A z-Score relative to the screened compound samples within each 384-well plate was calculated for each of these four values: 1) percent CCR7+CD62L+in CD4+, 2) percent CCR7+CD62L+in CD8+, 3) absolute relative number of CCR7+CD62L+in CD4+, and 4) absolute number of CCR7+CD62L+in CD8+(FIGS. 1A and 1i). Z-scores were also calculated for the percent viability of all cells within each sample and the relative absolute number of cells within each sample. A “Z-Score” is a statistical measurement of a score's relationship to the mean in a group of scores. AZ-score of 0 means the score is the same as the mean. AZ-score can also be positive or negative, indicating whether it is above or below the mean and by how many standard deviations.

On to `CNC(=O)c1cc(Oc2ccc(NC(=O)Nc3cc(C(C)(C)C)nn3-c3ccc4ncccc4c3)c(F)c2)ccn1` [DCC-2036, Rebastinib], for which the “cell number expansion of CAR-T cells in rounds 3 and 4 of the serial re-stimulation assay” value in assay [1] (FIG. 3C) is listed as “much higher than the vehicle control”. Further, the “total expansion in CAR-T cell number through all 4 rounds of the serial re-stimulation assay” value in assay [1] (FIG. 3D) is listed as “much greater expansion relative to the vehicle control; also recorded: improves cell expansion”. For the same compound, the “tumor burden / tumor control” value in the assay with Nalm-6-luc tumor cells is “dramatically reduced tumor burden; also recorded: able to clear tumor from the majority of mice”. In the assay with viable CD8+ population, the “CD8 Hit” value is recorded as “CD8”.
